Measurements published in paper PMC11763590, “Fluorescence Polarization Immunoassay for Rapid, Sensitive Detection of the Herbicide 2,4-Dichlorophenoxyacetic Acid in Juice and Water Samples” (Biosensors, 2025).

Target: monoclonal antibody against 2,4-D (MAb)
Assay: fluorescence polarization titration of tracer with antibody
Type: binding

| Kd [nM] | Compound |
| --- | --- |
| 3.7 ± 0.6 | O=C(COc1ccc(Cl)cc1Cl)NCC(=O)Nc1ccc(-c2c3ccc(=O)cc-3oc3cc(O)ccc23)c(C(=O)O)c1 [2,4-D-GAF, 2,4-D-glycine aminofluorescein] |
| 3.2 ± 0.5 | O=C(COc1ccc(Cl)cc1Cl)NCCCCNC(=S)Nc1ccc(-c2c3ccc(=O)cc-3oc3cc(O)ccc23)c(C(=O)O)c1 [2,4-D-BDF, 2,4-D-buthylenediamin fluoresceinthiocarbamyl] |
